Values joined by “and” are separate entries in the source; they are usually repeats but may differ in a detail not shown here. Equal entries are not always repeated.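 Where inhibition never reached the appropriate level, the endpoint shown equals the highest concentration tested. Otherwise, values were interpolated linearly from a five-concentration, 48-hour dose response in 96-well plates. Here, GI50 denotes the concentration required for 50% inhibition of growth. TGI marks complete inhibition of growth.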
tested on: A498 renal; assay: NCI anticancer screen, dose series, 48 h

| SMILES | GI50 | TGI |
| --- | --- | --- |
| Nc1nc2[nH]cc(CCc3ccc(C(=O)N[C@@H](CCC(=O)O)C(=O)O)cc3)c2c(=O)[nH]1 | 0.124 µM | > 100 µM |
| Fc1cc(-c2nnc3n2N=C(c2ccc(Cl)cc2)CS3)c(Cl)cc1Cl | 21 µM | 42.4 µM |
| COC1=CC(=O)C(C2(OC(C)C)OC(=O)C(Cl)=C2Cl)=CC1=O (stereo not drawn) | – | > 100 µM |
| CCC(C)SC1SCC2C(=O)N(C)C3(CC3C)C(=O)OCC(NC(=O)c3nc4ccccc4cc3O)C(=O)NC(C)C(=O)N(C)C1C(=O)N(C)C1(CC1C)C(=O)OCC(NC(=O)c1nc3ccccc3cc1O)C(=O)NC(C)C(=O)N2C (stereo not drawn) | – | 0.000492 µM |
| CN1CCN(C(=O)COc2ccc(C34CC5CC(CC(C5)C3)C4)cc2)CC1 | 15.2 µM | 30.5 µM |
| COc1ccccc1NC(=O)c1cc2cc(Br)ccc2cc1O | 2.96 µM | 11 µM |
| O=C(Nc1nn2c(-c3cc(C(F)(F)F)cc(C(F)(F)F)c3)nnc2s1)C1CCCC1 | 0.255 µM | 2.92 µM |
| COC(=O)[C@]12CC[C@@H](C)[C@H](C)[C@@H]1C1=CC[C@@H]3[C@@]4(C)C[C@@H](O)[C@H](O)[C@@](C)(CO)[C@@H]4[C@H](O)C[C@@]3(C)[C@]1(C)CC2 | 16.6 µM | 30.9 µM |
| COCCn1cc(-c2nc(-c3cc4cccnc4[nH]3)cs2)c2cc(OC)ccc21 | 1.86 µM | 6.18 µM |
| O=[N+]([O-])c1cc([N+](=O)[O-])c(C(F)(F)F)cc1NN=C(c1ccc(O)cc1)c1ccc(O)cc1 | 3.18 µM | 12.7 µM |
| NCCNCCNCCN | > 100 µM | > 100 µM |
| c1ccc(Nc2ncc(-c3ccccc3)o2)cc1 | > 24 µM | > 25 µM |
| COc1ccc(C(c2cc(OC)c(OC)c(OC)c2)n2cncn2)cc1O (stereo not drawn) | 0.324 µM | 0.957 µM |
| COc1c2ccccc2c(OC)c2[nH]c(=O)ccc12 | 2.04 µM | 4.75 µM |
| O=C(O)C(Cl)Cl | 2670 µM and > 10000 µM | > 10000 µM |
| NC(=S)N/N=C\c1nccc2c(C(F)(F)F)cccc12 | 0.433 µM | 10.6 µM |
| CC(=O)N[C@@H](Cc1ccc(OP(=O)(O)O)cc1)C(=O)N[C@H]1CCC(=O)N2CCC[C@@H](C(=O)Nc3cccc4ccccc34)N2C1=O | > 25 µM | > 25 µM |

tested on: ACHN renal; assay: NCI anticancer screen, dose series, 48 h

| SMILES | GI50 | TGI |
| --- | --- | --- |
| Nc1nc2[nH]cc(CCc3ccc(C(=O)N[C@@H](CCC(=O)O)C(=O)O)cc3)c2c(=O)[nH]1 | 0.129 µM | > 100 µM |
| Fc1cc(-c2nnc3n2N=C(c2ccc(Cl)cc2)CS3)c(Cl)cc1Cl | 3.22 µM | 9.58 µM |
| COC1=CC(=O)C(C2(OC(C)C)OC(=O)C(Cl)=C2Cl)=CC1=O (stereo not drawn) | – | > 100 µM |
| CCC(C)SC1SCC2C(=O)N(C)C3(CC3C)C(=O)OCC(NC(=O)c3nc4ccccc4cc3O)C(=O)NC(C)C(=O)N(C)C1C(=O)N(C)C1(CC1C)C(=O)OCC(NC(=O)c1nc3ccccc3cc1O)C(=O)NC(C)C(=O)N2C (stereo not drawn) | 0.000296 µM | 0.221 µM |
| CN1CCN(C(=O)COc2ccc(C34CC5CC(CC(C5)C3)C4)cc2)CC1 | 17.2 µM | 39.5 µM |
| COc1ccccc1NC(=O)c1cc2cc(Br)ccc2cc1O | 2.52 µM | 7.21 µM |
| O=C(Nc1nn2c(-c3cc(C(F)(F)F)cc(C(F)(F)F)c3)nnc2s1)C1CCCC1 | 1.04 µM | > 31.6 µM |
| COC(=O)[C@]12CC[C@@H](C)[C@H](C)[C@@H]1C1=CC[C@@H]3[C@@]4(C)C[C@@H](O)[C@H](O)[C@@](C)(CO)[C@@H]4[C@H](O)C[C@@]3(C)[C@]1(C)CC2 | 7.8 µM | 21.6 µM |
| COCCn1cc(-c2nc(-c3cc4cccnc4[nH]3)cs2)c2cc(OC)ccc21 | 2.61 µM | > 100 µM |
| O=[N+]([O-])c1cc([N+](=O)[O-])c(C(F)(F)F)cc1NN=C(c1ccc(O)cc1)c1ccc(O)cc1 | 2.41 µM | 8.23 µM |
| NCCNCCNCCN | > 100 µM | > 100 µM |
| c1ccc(Nc2ncc(-c3ccccc3)o2)cc1 | > 25 µM | > 25 µM |
| COc1ccc(C(c2cc(OC)c(OC)c(OC)c2)n2cncn2)cc1O (stereo not drawn) | 0.653 µM | > 100 µM |
| COc1c2ccccc2c(OC)c2[nH]c(=O)ccc12 | 7.92 µM | > 100 µM |
| O=C(O)C(Cl)Cl | 5700 µM and > 10000 µM | > 10000 µM |
| NC(=S)N/N=C\c1nccc2c(C(F)(F)F)cccc12 | 0.226 µM | 5.58 µM |
| CC(=O)N[C@@H](Cc1ccc(OP(=O)(O)O)cc1)C(=O)N[C@H]1CCC(=O)N2CCC[C@@H](C(=O)Nc3cccc4ccccc34)N2C1=O | > 25 µM | > 25 µM |

tested on: M14 melanoma; assay: NCI anticancer screen, dose series, 48 h

| SMILES | GI50 | TGI |
| --- | --- | --- |
| Nc1nc2[nH]cc(CCc3ccc(C(=O)N[C@@H](CCC(=O)O)C(=O)O)cc3)c2c(=O)[nH]1 | 0.158 µM | > 100 µM |
| Fc1cc(-c2nnc3n2N=C(c2ccc(Cl)cc2)CS3)c(Cl)cc1Cl | 4.87 µM | 17.2 µM |
| COC1=CC(=O)C(C2(OC(C)C)OC(=O)C(Cl)=C2Cl)=CC1=O (stereo not drawn) | – | > 100 µM |
| CCC(C)SC1SCC2C(=O)N(C)C3(CC3C)C(=O)OCC(NC(=O)c3nc4ccccc4cc3O)C(=O)NC(C)C(=O)N(C)C1C(=O)N(C)C1(CC1C)C(=O)OCC(NC(=O)c1nc3ccccc3cc1O)C(=O)NC(C)C(=O)N2C (stereo not drawn) | – | 0.000846 µM and < 0.025 µM |
| CN1CCN(C(=O)COc2ccc(C34CC5CC(CC(C5)C3)C4)cc2)CC1 | 15.3 µM | 30.7 µM |
| COc1ccccc1NC(=O)c1cc2cc(Br)ccc2cc1O | 3.01 µM | 11.9 µM |
| O=C(Nc1nn2c(-c3cc(C(F)(F)F)cc(C(F)(F)F)c3)nnc2s1)C1CCCC1 | 0.957 µM | > 100 µM |
| COC(=O)[C@]12CC[C@@H](C)[C@H](C)[C@@H]1C1=CC[C@@H]3[C@@]4(C)C[C@@H](O)[C@H](O)[C@@](C)(CO)[C@@H]4[C@H](O)C[C@@]3(C)[C@]1(C)CC2 | 12.8 µM | 29.4 µM |
| COCCn1cc(-c2nc(-c3cc4cccnc4[nH]3)cs2)c2cc(OC)ccc21 | 4.8 µM | > 100 µM |
| O=[N+]([O-])c1cc([N+](=O)[O-])c(C(F)(F)F)cc1NN=C(c1ccc(O)cc1)c1ccc(O)cc1 | 3.18 µM | 12.7 µM |
| NCCNCCNCCN | > 100 µM | > 100 µM |
| c1ccc(Nc2ncc(-c3ccccc3)o2)cc1 | > 25 µM | > 25 µM |
| COc1ccc(C(c2cc(OC)c(OC)c(OC)c2)n2cncn2)cc1O (stereo not drawn) | 0.374 µM | > 100 µM |
| COc1c2ccccc2c(OC)c2[nH]c(=O)ccc12 | 0.843 µM | 2.37 µM |
| O=C(O)C(Cl)Cl | > 10000 µM | > 10000 µM |
| NC(=S)N/N=C\c1nccc2c(C(F)(F)F)cccc12 | 0.224 µM | 0.706 µM |
| CC(=O)N[C@@H](Cc1ccc(OP(=O)(O)O)cc1)C(=O)N[C@H]1CCC(=O)N2CCC[C@@H](C(=O)Nc3cccc4ccccc34)N2C1=O | > 25 µM | > 25 µM |

tested on: NCI-H23 lung; assay: NCI anticancer screen, dose series, 48 h

| SMILES | TGI | GI50 |
| --- | --- | --- |
| Nc1nc2[nH]cc(CCc3ccc(C(=O)N[C@@H](CCC(=O)O)C(=O)O)cc3)c2c(=O)[nH]1 | > 100 µM | – |
| Fc1cc(-c2nnc3n2N=C(c2ccc(Cl)cc2)CS3)c(Cl)cc1Cl | 20.8 µM | 6.67 µM |
| COC1=CC(=O)C(C2(OC(C)C)OC(=O)C(Cl)=C2Cl)=CC1=O (stereo not drawn) | > 100 µM | – |
| CCC(C)SC1SCC2C(=O)N(C)C3(CC3C)C(=O)OCC(NC(=O)c3nc4ccccc4cc3O)C(=O)NC(C)C(=O)N(C)C1C(=O)N(C)C1(CC1C)C(=O)OCC(NC(=O)c1nc3ccccc3cc1O)C(=O)NC(C)C(=O)N2C (stereo not drawn) | 0.000154 µM | – |
| CN1CCN(C(=O)COc2ccc(C34CC5CC(CC(C5)C3)C4)cc2)CC1 | 36.7 µM | 15.3 µM |
| COc1ccccc1NC(=O)c1cc2cc(Br)ccc2cc1O | 8.71 µM | 2.19 µM |
| O=C(Nc1nn2c(-c3cc(C(F)(F)F)cc(C(F)(F)F)c3)nnc2s1)C1CCCC1 | > 100 µM | 0.394 µM |
| COC(=O)[C@]12CC[C@@H](C)[C@H](C)[C@@H]1C1=CC[C@@H]3[C@@]4(C)C[C@@H](O)[C@H](O)[C@@](C)(CO)[C@@H]4[C@H](O)C[C@@]3(C)[C@]1(C)CC2 | 36.6 µM | 16.8 µM |
| COCCn1cc(-c2nc(-c3cc4cccnc4[nH]3)cs2)c2cc(OC)ccc21 | 10.8 µM | 1.5 µM |
| O=[N+]([O-])c1cc([N+](=O)[O-])c(C(F)(F)F)cc1NN=C(c1ccc(O)cc1)c1ccc(O)cc1 | 31 µM | 4.23 µM |
| NCCNCCNCCN | > 100 µM | > 100 µM |
| c1ccc(Nc2ncc(-c3ccccc3)o2)cc1 | > 25 µM | > 25 µM |
| COc1ccc(C(c2cc(OC)c(OC)c(OC)c2)n2cncn2)cc1O (stereo not drawn) | > 100 µM | 0.977 µM |
| COc1c2ccccc2c(OC)c2[nH]c(=O)ccc12 | 3.47 µM | 0.925 µM |
| O=C(O)C(Cl)Cl | > 10000 µM | > 10000 µM |
| NC(=S)N/N=C\c1nccc2c(C(F)(F)F)cccc12 | > 49 µM | 0.446 µM |
| CC(=O)N[C@@H](Cc1ccc(OP(=O)(O)O)cc1)C(=O)N[C@H]1CCC(=O)N2CCC[C@@H](C(=O)Nc3cccc4ccccc34)N2C1=O | > 25 µM | > 25 µM |

tested on: NCI/ADR-RES ovarian; assay: NCI anticancer screen, dose series, 48 h

| SMILES | GI50 | TGI |
| --- | --- | --- |
| Nc1nc2[nH]cc(CCc3ccc(C(=O)N[C@@H](CCC(=O)O)C(=O)O)cc3)c2c(=O)[nH]1 | > 100 µM | > 100 µM |
| Fc1cc(-c2nnc3n2N=C(c2ccc(Cl)cc2)CS3)c(Cl)cc1Cl | 9.29 µM | 36.8 µM |
| COC1=CC(=O)C(C2(OC(C)C)OC(=O)C(Cl)=C2Cl)=CC1=O (stereo not drawn) | – | > 100 µM |
| CCC(C)SC1SCC2C(=O)N(C)C3(CC3C)C(=O)OCC(NC(=O)c3nc4ccccc4cc3O)C(=O)NC(C)C(=O)N(C)C1C(=O)N(C)C1(CC1C)C(=O)OCC(NC(=O)c1nc3ccccc3cc1O)C(=O)NC(C)C(=O)N2C (stereo not drawn) | – | 6.15 µM |
| CN1CCN(C(=O)COc2ccc(C34CC5CC(CC(C5)C3)C4)cc2)CC1 | 21.7 µM | 84.4 µM |
| COc1ccccc1NC(=O)c1cc2cc(Br)ccc2cc1O | 2.75 µM | 12.1 µM |
| O=C(Nc1nn2c(-c3cc(C(F)(F)F)cc(C(F)(F)F)c3)nnc2s1)C1CCCC1 | 0.641 µM | > 28.5 µM |
| COC(=O)[C@]12CC[C@@H](C)[C@H](C)[C@@H]1C1=CC[C@@H]3[C@@]4(C)C[C@@H](O)[C@H](O)[C@@](C)(CO)[C@@H]4[C@H](O)C[C@@]3(C)[C@]1(C)CC2 | 15.5 µM | 35.1 µM |
| COCCn1cc(-c2nc(-c3cc4cccnc4[nH]3)cs2)c2cc(OC)ccc21 | 2.95 µM | 23.8 µM |
| O=[N+]([O-])c1cc([N+](=O)[O-])c(C(F)(F)F)cc1NN=C(c1ccc(O)cc1)c1ccc(O)cc1 | 4.44 µM | 65.4 µM |
| NCCNCCNCCN | > 100 µM | > 100 µM |
| c1ccc(Nc2ncc(-c3ccccc3)o2)cc1 | > 25 µM | > 25 µM |
| COc1ccc(C(c2cc(OC)c(OC)c(OC)c2)n2cncn2)cc1O (stereo not drawn) | 1.18 µM | > 100 µM |
| COc1c2ccccc2c(OC)c2[nH]c(=O)ccc12 | 6.51 µM | > 100 µM |
| O=C(O)C(Cl)Cl | 7660 µM and > 10000 µM | > 10000 µM |
| NC(=S)N/N=C\c1nccc2c(C(F)(F)F)cccc12 | 0.349 µM | 20.4 µM |

From PubChem BioAssay (NCI)
